Data from paper PMC9783573, “Introduction of a SiFA Moiety into the D-Glutamate Chain of DOTA-PP-F11N Results in Radiohybrid-Based CCK-2R-Targeted Compounds with Improved Pharmacokinetics In Vivo” (Pharmaceuticals, 2022).
Starred links: 1 amine or outer side, 2 acyl side, 3 side chain; linkers in the order of their positions; H or OH if unused. Non-standard residues stand in square brackets, D forms with d. Residues, ends and D or L forms follow the SMILES beside them. *: point of attachment. X1 = O=C(O)CN1CCN(CC(=O)O)CCN([C@H](CCC(=O)*)C(=O)O)CCN(CC(=O)O)CC1; Benzoyl(4-SiFtBu2) = CC(C)(C)[Si](F)(c1ccc(C(=O)*)cc1)C(C)(C)C; d(γGlu) = O=C(O)[C@@H](CCC(=O)[*:2])N[*:1]; Nle = CCCC[C@H](N)C(=O)O; dDap = NC[C@@H](N)C(=O)O

Assay: Lipophilicity, n-octanol/PBS (pH 7.4) distribution coefficient
Format: physicochemical
Conditions: 177Lu-labelled peptide; n-octanol/PBS pH 7.4; read-out: logD7.4
Experimental: Lipophilicity (depicted as octanol-phosphate-buffered saline solution (PBS, pH = 7.4) distribution coefficient, logD7.4) was determined via dissolving the ^177Lu-labelled peptide (approx. 1 MBq) in a mixture (1/1, v/v) of n-octanol and PBS. The suspension was vortexed in a reaction vial (1.5 mL) for 3 min at RT and the vial was centrifuged at 9000× […] for 5 min (Biofuge 15, Heraus Sepatech GmbH, Osterode, Germany). 200 μL aliquots of both layers were measured separately in a γ-counter (Perkin Elmer, Waltham, MA, USA). The experiment was repeated at least five times.

In order of falling logD:
1. CCCC[C@H](NC(=O)[C@H](Cc1c[nH]c2ccccc12)NC(=O)CNC(=O)[C@H](Cc1ccc(O)cc1)NC(=O)[C@H](C)NC(=O)[C@@H](CNC(=O)c1ccc([Si](F)(C(C)(C)C)C(C)(C)C)cc1)NC(=O)[C@@H](CCC(=O)O)NC(=O)[C@@H](CCC(=O)O)NC(=O)[C@@H](CCC(=O)O)NC(=O)[C@@H](CCC(=O)O)NC(=O)[C@@H](CCC(=O)O)NC(=O)[C@@H](CCC(=O)O)NC(=O)CC[C@H](C(=O)O)N1CCN(CC(=O)O)CCN(CC(=O)O)CCN(CC(=O)O)CC1)C(=O)N[C@@H](CC(=O)O)C(=O)N[C@@H](Cc1ccccc1)C(N)=O [[nat/177Lu]Lu-(R)-DOTAGA-rhCCK-1, metal not drawn] (X1-[dE][dE][dE][dE][dE][dE][dDap](Benzoyl(4-SiFtBu2))AYGW[Nle]DF-NH2)  -1.71 ± 0.1
2. CCCC[C@H](NC(=O)[C@H](Cc1c[nH]c2ccccc12)NC(=O)CNC(=O)[C@H](Cc1ccc(O)cc1)NC(=O)[C@H](C)NC(=O)[C@@H](CCC(=O)O)NC(=O)[C@@H](CNC(=O)c1ccc([Si](F)(C(C)(C)C)C(C)(C)C)cc1)NC(=O)[C@@H](CCC(=O)O)NC(=O)[C@@H](CCC(=O)O)NC(=O)[C@@H](CCC(=O)O)NC(=O)[C@@H](CCC(=O)O)NC(=O)[C@@H](CCC(=O)O)NC(=O)CC[C@H](C(=O)O)N1CCN(CC(=O)O)CCN(CC(=O)O)CCN(CC(=O)O)CC1)C(=O)N[C@@H](CC(=O)O)C(=O)N[C@@H](Cc1ccccc1)C(N)=O [[nat/177Lu]Lu-(R)-DOTAGA-rhCCK-2, metal not drawn] (X1-[dE][dE][dE][dE][dE][dDap](Benzoyl(4-SiFtBu2))[dE]AYGW[Nle]DF-NH2)  -1.95 ± 0.09
3. CCCC[C@H](NC(=O)[C@H](Cc1c[nH]c2ccccc12)NC(=O)CNC(=O)[C@H](Cc1ccc(O)cc1)NC(=O)[C@H](C)NC(=O)[C@@H](CNC(=O)c1ccc([Si](F)(C(C)(C)C)C(C)(C)C)cc1)NC(=O)CC[C@@H](NC(=O)CC[C@@H](NC(=O)CC[C@@H](NC(=O)CC[C@@H](NC(=O)CC[C@@H](NC(=O)CC[C@@H](NC(=O)CC[C@H](C(=O)O)N1CCN(CC(=O)O)CCN(CC(=O)O)CCN(CC(=O)O)CC1)C(=O)O)C(=O)O)C(=O)O)C(=O)O)C(=O)O)C(=O)O)C(=O)N[C@@H](CC(=O)O)C(=O)N[C@@H](Cc1ccccc1)C(N)=O [[nat/177Lu]Lu-(R)-DOTAGA-rhCCK-10, metal not drawn] ({X1-d(γGlu)-d(γGlu)-d(γGlu)-d(γGlu)-d(γGlu)-d(γGlu)}-[dDap](Benzoyl(4-SiFtBu2))AYGW[Nle]DF-NH2)  -2.15 ± 0.08
4. CCCC[C@H](NC(=O)[C@H](Cc1c[nH]c2ccccc12)NC(=O)CNC(=O)[C@H](Cc1ccc(O)cc1)NC(=O)[C@H](C)NC(=O)[C@@H](CCC(=O)O)NC(=O)[C@@H](CCC(=O)O)NC(=O)[C@@H](CCC(=O)O)NC(=O)[C@@H](CNC(=O)c1ccc([Si](F)(C(C)(C)C)C(C)(C)C)cc1)NC(=O)[C@@H](CCC(=O)O)NC(=O)[C@@H](CCC(=O)O)NC(=O)[C@@H](CCC(=O)O)NC(=O)CC[C@H](C(=O)O)N1CCN(CC(=O)O)CCN(CC(=O)O)CCN(CC(=O)O)CC1)C(=O)N[C@@H](CC(=O)O)C(=O)N[C@@H](Cc1ccccc1)C(N)=O [[nat/177Lu]Lu-(R)-DOTAGA-rhCCK-4, metal not drawn] (X1-[dE][dE][dE][dDap](Benzoyl(4-SiFtBu2))[dE][dE][dE]AYGW[Nle]DF-NH2)  -2.19 ± 0.08
5. CCCC[C@H](NC(=O)[C@H](Cc1c[nH]c2ccccc12)NC(=O)CNC(=O)[C@H](Cc1ccc(O)cc1)NC(=O)[C@H](C)NC(=O)[C@@H](CCC(=O)O)NC(=O)[C@@H](CCC(=O)O)NC(=O)[C@@H](CCC(=O)O)NC(=O)[C@@H](CCC(=O)O)NC(=O)[C@@H](CCC(=O)O)NC(=O)[C@@H](CCC(=O)O)NC(=O)[C@@H](CCC(=O)O)NC(=O)[C@@H](CNC(=O)c1ccc([Si](F)(C(C)(C)C)C(C)(C)C)cc1)NC(=O)CC[C@H](C(=O)O)N1CCN(CC(=O)O)CCN(CC(=O)O)CCN(CC(=O)O)CC1)C(=O)N[C@@H](CC(=O)O)C(=O)N[C@@H](Cc1ccccc1)C(N)=O [[nat/177Lu]Lu-(R)-DOTAGA-rhCCK-8, metal not drawn] (X1-[dDap](Benzoyl(4-SiFtBu2))[dE][dE][dE][dE][dE][dE][dE]AYGW[Nle]DF-NH2)  -2.19 ± 0.08
6. CCCC[C@H](NC(=O)[C@H](Cc1c[nH]c2ccccc12)NC(=O)CNC(=O)[C@H](Cc1ccc(O)cc1)NC(=O)[C@H](C)NC(=O)[C@@H](CCC(=O)O)NC(=O)[C@@H](CCC(=O)O)NC(=O)[C@@H](CCC(=O)O)NC(=O)[C@@H](CCC(=O)O)NC(=O)[C@@H](CCC(=O)O)NC(=O)[C@@H](CNC(=O)c1ccc([Si](F)(C(C)(C)C)C(C)(C)C)cc1)NC(=O)[C@@H](CCC(=O)O)NC(=O)CC[C@H](C(=O)O)N1CCN(CC(=O)O)CCN(CC(=O)O)CCN(CC(=O)O)CC1)C(=O)N[C@@H](CC(=O)O)C(=O)N[C@@H](Cc1ccccc1)C(N)=O [[nat/177Lu]Lu-(R)-DOTAGA-rhCCK-6, metal not drawn] (X1-[dE][dDap](Benzoyl(4-SiFtBu2))[dE][dE][dE][dE][dE]AYGW[Nle]DF-NH2)  -2.22 ± 0.08
7. CCCC[C@H](NC(=O)[C@H](Cc1c[nH]c2ccccc12)NC(=O)CNC(=O)[C@H](Cc1ccc(O)cc1)NC(=O)[C@H](C)NC(=O)CC[C@@H](NC(=O)[C@@H](CNC(=O)c1ccc([Si](F)(C(C)(C)C)C(C)(C)C)cc1)NC(=O)CC[C@@H](NC(=O)CC[C@@H](NC(=O)CC[C@@H](NC(=O)CC[C@@H](NC(=O)CC[C@@H](NC(=O)CC[C@H](C(=O)O)N1CCN(CC(=O)O)CCN(CC(=O)O)CCN(CC(=O)O)CC1)C(=O)O)C(=O)O)C(=O)O)C(=O)O)C(=O)O)C(=O)O)C(=O)N[C@@H](CC(=O)O)C(=O)N[C@@H](Cc1ccccc1)C(N)=O [[nat/177Lu]Lu-(R)-DOTAGA-rhCCK-11, metal not drawn] ({X1-d(γGlu)-d(γGlu)-d(γGlu)-d(γGlu)-d(γGlu)}-[dDap](Benzoyl(4-SiFtBu2))[d(γGlu)]AYGW[Nle]DF-NH2)  -2.23 ± 0.07
8. CCCC[C@H](NC(=O)[C@H](Cc1c[nH]c2ccccc12)NC(=O)CNC(=O)[C@H](Cc1ccc(O)cc1)NC(=O)[C@H](C)NC(=O)[C@@H](CCC(=O)O)NC(=O)[C@@H](CCC(=O)O)NC(=O)[C@@H](CCC(=O)O)NC(=O)[C@@H](CCC(=O)O)NC(=O)[C@@H](CCC(=O)O)NC(=O)[C@@H](CCC(=O)O)NC(=O)[C@@H](CNC(=O)c1ccc([Si](F)(C(C)(C)C)C(C)(C)C)cc1)NC(=O)CC[C@H](C(=O)O)N1CCN(CC(=O)O)CCN(CC(=O)O)CCN(CC(=O)O)CC1)C(=O)N[C@@H](CC(=O)O)C(=O)N[C@@H](Cc1ccccc1)C(N)=O [[nat/177Lu]Lu-(R)-DOTAGA-rhCCK-7, metal not drawn] (X1-[dDap](Benzoyl(4-SiFtBu2))[dE][dE][dE][dE][dE][dE]AYGW[Nle]DF-NH2)  -2.63 ± 0.08
9. CCCC[C@H](NC(=O)[C@H](Cc1c[nH]c2ccccc12)NC(=O)CNC(=O)[C@H](Cc1ccc(O)cc1)NC(=O)[C@H](C)NC(=O)[C@@H](CCC(=O)O)NC(=O)[C@@H](CCC(=O)O)NC(=O)[C@@H](CCC(=O)O)NC(=O)[C@@H](CCC(=O)O)NC(=O)[C@@H](CNC(=O)c1ccc([Si](F)(C(C)(C)C)C(C)(C)C)cc1)NC(=O)[C@@H](CCC(=O)O)NC(=O)[C@@H](CCC(=O)O)NC(=O)CC[C@H](C(=O)O)N1CCN(CC(=O)O)CCN(CC(=O)O)CCN(CC(=O)O)CC1)C(=O)N[C@@H](CC(=O)O)C(=O)N[C@@H](Cc1ccccc1)C(N)=O [[nat/177Lu]Lu-(R)-DOTAGA-rhCCK-5, metal not drawn] (X1-[dE][dE][dDap](Benzoyl(4-SiFtBu2))[dE][dE][dE][dE]AYGW[Nle]DF-NH2)  -2.67 ± 0.05
